# Assay results as given in US8192962B2, “Processes for detecting toxic substances” (Daikin Industries, Ltd., priority 2001, dated 2012).
# Test system: Metabolism protein genes
# Test: DNA chip mRNA expression in yeast, metabolism protein genes (Table 7)
# Assay type: cell-based, Saccharomyces cerevisiae S288C
# Summary of the method: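 Measured as treated-to-untreated fluorescence ratio on a full-genome yeast DNA chip. Cells (S288C, YPD, 25° C.) were exposed in log phase for two hours to one chemical, dosed to curb growth without killing.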
smiles,measurement,setting,value
"[Cl][Hg][Cl] [(3), HgCl2]",The level of expressed mRNA in the presence of chemical substance/The level of expressed mRNA in the absence of chemical substance,yeast gene YAL012W,10.4
same,The level of expressed mRNA in the presence of chemical substance/The level of expressed mRNA in the absence of chemical substance,yeast gene YAL038W,3.0
same,level of expressed mRNA in the presence/in the absence of chemical substance,yeast gene YBR003W,1.0
same,level of expressed mRNA in the presence/in the absence of chemical substance,yeast gene YBR011C,2.5
same,level of expressed mRNA in the presence/in the absence of chemical substance,yeast gene YBR020W,1.9
same,The level of expressed mRNA in the presence of chemical substance/The level of expressed mRNA in the absence of chemical substance,yeast gene YBR023C,1.3
same,The level of expressed mRNA in the presence of chemical substance/The level of expressed mRNA in the absence of chemical substance,yeast gene YBR029C,1.8
same,The level of expressed mRNA in the presence of chemical substance/The level of expressed mRNA in the absence of chemical substance,yeast gene YBR183W,2.0
same,The level of expressed mRNA in the presence of chemical substance/The level of expressed mRNA in the absence of chemical substance,yeast gene YBR222C,1.3
same,The level of expressed mRNA in the presence of chemical substance/The level of expressed mRNA in the absence of chemical substance,yeast gene YBR256C,0.6
same,The level of expressed mRNA in the presence of chemical substance/The level of expressed mRNA in the absence of chemical substance,yeast gene YCL009C,2.0
same,The level of expressed mRNA in the presence of chemical substance/The level of expressed mRNA in the absence of chemical substance,yeast gene YCL064C,0.8
same,level of expressed mRNA in the presence/in the absence of chemical substance,yeast gene YCR010C,1.6
same,level of expressed mRNA in the presence/in the absence of chemical substance,yeast gene YCR034W,2.5
same,The level of expressed mRNA in the presence of chemical substance/The level of expressed mRNA in the absence of chemical substance,yeast gene YCR048W,1.0
same,The level of expressed mRNA in the presence of chemical substance/The level of expressed mRNA in the absence of chemical substance,yeast gene YCR098C,1.7
same,The level of expressed mRNA in the presence of chemical substance/The level of expressed mRNA in the absence of chemical substance,yeast gene YDR019C,1.7
same,level of expressed mRNA in the presence/in the absence of chemical substance,yeast gene YDR050C,2.3
same,level of expressed mRNA in the presence/in the absence of chemical substance,yeast gene YDR073W,0.7
same,level of expressed mRNA in the presence/in the absence of chemical substance,yeast gene YDR123C,0.4
same,level of expressed mRNA in the presence/in the absence of chemical substance,yeast gene YDR178W,3.4
same,level of expressed mRNA in the presence/in the absence of chemical substance,yeast gene YDR277C,1.0
same,level of expressed mRNA in the presence/in the absence of chemical substance,yeast gene YDR284C,3.0
same,level of expressed mRNA in the presence/in the absence of chemical substance,yeast gene YDR345C,5.6
same,The level of expressed mRNA in the presence of chemical substance/The level of expressed mRNA in the absence of chemical substance,yeast gene YDR380W,0.8
same,level of expressed mRNA in the presence/in the absence of chemical substance,yeast gene YDR400W,2.2
same,level of expressed mRNA in the presence/in the absence of chemical substance,yeast gene YDR408C,1.4
same,level of expressed mRNA in the presence/in the absence of chemical substance,yeast gene YDR483W,1.3
same,The level of expressed mRNA in the presence of chemical substance/The level of expressed mRNA in the absence of chemical substance,yeast gene YDR497C,0.6
same,The level of expressed mRNA in the presence of chemical substance/The level of expressed mRNA in the absence of chemical substance,yeast gene YDR502C,2.4
same,The level of expressed mRNA in the presence of chemical substance/The level of expressed mRNA in the absence of chemical substance,yeast gene YDR516C,7.8
same,level of expressed mRNA in the presence/in the absence of chemical substance,yeast gene YEL063C,2.4
same,level of expressed mRNA in the presence/in the absence of chemical substance,yeast gene YER015W,1.1
same,The level of expressed mRNA in the presence of chemical substance/The level of expressed mRNA in the absence of chemical substance,yeast gene YER026C,3.3
same,The level of expressed mRNA in the presence of chemical substance/The level of expressed mRNA in the absence of chemical substance,yeast gene YER053C,1.9
same,The level of expressed mRNA in the presence of chemical substance/The level of expressed mRNA in the absence of chemical substance,yeast gene YER069W,3.3
same,level of expressed mRNA in the presence/in the absence of chemical substance,yeast gene YER081W,2.7
same,The level of expressed mRNA in the presence of chemical substance/The level of expressed mRNA in the absence of chemical substance,yeast gene YER096W,2.0
same,level of expressed mRNA in the presence/in the absence of chemical substance,yeast gene YER120W,2.5
same,The level of expressed mRNA in the presence of chemical substance/The level of expressed mRNA in the absence of chemical substance,yeast gene YER178W,3.6
same,level of expressed mRNA in the presence/in the absence of chemical substance,yeast gene YFL011W,3.7
same,The level of expressed mRNA in the presence of chemical substance/The level of expressed mRNA in the absence of chemical substance,yeast gene YFL014W,5.7
same,The level of expressed mRNA in the presence of chemical substance/The level of expressed mRNA in the absence of chemical substance,yeast gene YFL030W,3.1
same,The level of expressed mRNA in the presence of chemical substance/The level of expressed mRNA in the absence of chemical substance,yeast gene YFL031W,2.1
same,The level of expressed mRNA in the presence of chemical substance/The level of expressed mRNA in the absence of chemical substance,yeast gene YFL056C,2.3
same,The level of expressed mRNA in the presence of chemical substance/The level of expressed mRNA in the absence of chemical substance,yeast gene YFL057C,1.5
same,The level of expressed mRNA in the presence of chemical substance/The level of expressed mRNA in the absence of chemical substance,yeast gene YFR047C,2.7
same,level of expressed mRNA in the presence/in the absence of chemical substance,yeast gene YGL012W,3.0
same,The level of expressed mRNA in the presence of chemical substance/The level of expressed mRNA in the absence of chemical substance,yeast gene YGL022W,1.4
same,level of expressed mRNA in the presence/in the absence of chemical substance,yeast gene YGL115W,1.2
same,The level of expressed mRNA in the presence of chemical substance/The level of expressed mRNA in the absence of chemical substance,yeast gene YGL126W,1.4
same,level of expressed mRNA in the presence/in the absence of chemical substance,yeast gene YGL205W,0.7
same,The level of expressed mRNA in the presence of chemical substance/The level of expressed mRNA in the absence of chemical substance,yeast gene YGL209W,1.1
same,The level of expressed mRNA in the presence of chemical substance/The level of expressed mRNA in the absence of chemical substance,yeast gene YGL248W,0.9
same,The level of expressed mRNA in the presence of chemical substance/The level of expressed mRNA in the absence of chemical substance,yeast gene YGR037C,2.2
same,The level of expressed mRNA in the presence of chemical substance/The level of expressed mRNA in the absence of chemical substance,yeast gene YGR055W,12.0
same,level of expressed mRNA in the presence/in the absence of chemical substance,yeast gene YGR096W,1.1
same,level of expressed mRNA in the presence/in the absence of chemical substance,yeast gene YGR191W,1.6
same,The level of expressed mRNA in the presence of chemical substance/The level of expressed mRNA in the absence of chemical substance,yeast gene YGR194C,1.3
same,level of expressed mRNA in the presence/in the absence of chemical substance,yeast gene YGR204W,2.7
same,The level of expressed mRNA in the presence of chemical substance/The level of expressed mRNA in the absence of chemical substance,yeast gene YGR256W,2.3
same,The level of expressed mRNA in the presence of chemical substance/The level of expressed mRNA in the absence of chemical substance,yeast gene YGR282C,4.6
same,level of expressed mRNA in the presence/in the absence of chemical substance,yeast gene YGR288W,1.0
same,level of expressed mRNA in the presence/in the absence of chemical substance,yeast gene YHR025W,2.4
same,The level of expressed mRNA in the presence of chemical substance/The level of expressed mRNA in the absence of chemical substance,yeast gene YHR111W,0.8
same,level of expressed mRNA in the presence/in the absence of chemical substance,yeast gene YHR123W,1.8
same,The level of expressed mRNA in the presence of chemical substance/The level of expressed mRNA in the absence of chemical substance,yeast gene YHR137W,2.4
same,The level of expressed mRNA in the presence of chemical substance/The level of expressed mRNA in the absence of chemical substance,yeast gene YHR174W,3.3
same,The level of expressed mRNA in the presence of chemical substance/The level of expressed mRNA in the absence of chemical substance,yeast gene YHR176W,1.1
same,level of expressed mRNA in the presence/in the absence of chemical substance,yeast gene YHR210C,0.6
same,level of expressed mRNA in the presence/in the absence of chemical substance,yeast gene YIL006W,1.4
same,The level of expressed mRNA in the presence of chemical substance/The level of expressed mRNA in the absence of chemical substance,yeast gene YIL045W,1.9
same,The level of expressed mRNA in the presence of chemical substance/The level of expressed mRNA in the absence of chemical substance,yeast gene YIL107C,1.1
same,The level of expressed mRNA in the presence of chemical substance/The level of expressed mRNA in the absence of chemical substance,yeast gene YIL154C,1.9
same,The level of expressed mRNA in the presence of chemical substance/The level of expressed mRNA in the absence of chemical substance,yeast gene YIL155C,1.4
same,The level of expressed mRNA in the presence of chemical substance/The level of expressed mRNA in the absence of chemical substance,yeast gene YIR034C,2.5
same,The level of expressed mRNA in the presence of chemical substance/The level of expressed mRNA in the absence of chemical substance,yeast gene YIR036C,2.6
same,The level of expressed mRNA in the presence of chemical substance/The level of expressed mRNA in the absence of chemical substance,yeast gene YJL031C,0.5
same,The level of expressed mRNA in the presence of chemical substance/The level of expressed mRNA in the absence of chemical substance,yeast gene YJL068C,3.4
same,The level of expressed mRNA in the presence of chemical substance/The level of expressed mRNA in the absence of chemical substance,yeast gene YJL088W,2.2
same,The level of expressed mRNA in the presence of chemical substance/The level of expressed mRNA in the absence of chemical substance,yeast gene YJL099W,0.3
same,level of expressed mRNA in the presence/in the absence of chemical substance,yeast gene YJL121C,1.9
same,level of expressed mRNA in the presence/in the absence of chemical substance,yeast gene YJL167W,1.4
same,The level of expressed mRNA in the presence of chemical substance/The level of expressed mRNA in the absence of chemical substance,yeast gene YJL172W,1.8
same,level of expressed mRNA in the presence/in the absence of chemical substance,yeast gene YJL216C,2.2
same,The level of expressed mRNA in the presence of chemical substance/The level of expressed mRNA in the absence of chemical substance,yeast gene YJL219W,3.1
same,level of expressed mRNA in the presence/in the absence of chemical substance,yeast gene YJR077C,2.0
same,The level of expressed mRNA in the presence of chemical substance/The level of expressed mRNA in the absence of chemical substance,yeast gene YJR137C,4.6
same,level of expressed mRNA in the presence/in the absence of chemical substance,yeast gene YJR143C,2.1
same,The level of expressed mRNA in the presence of chemical substance/The level of expressed mRNA in the absence of chemical substance,yeast gene YJR148W,2.0
